Laboratory results as given in patent US9777000B2, “Pyrazole derivative” (MOCHIDA PHARMACEUTICAL CO., LTD., priority 2013, dated 2017).

Biological target: human PDE10 (Homo sapiens (Human), UniProt Q9Y233)
Experiment: Evaluation of enzyme inhibitory activity: human PDE10 inhibitory effect (IMAP TR-FRET)
Assay type: biochemical
Settings: cAMP substrate
Procedure, shortened: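 IMAP TR-FRET assay: PDE10 (diluted to 2 ng/mL) was preincubated 5 min with compound in Tris pH 7.2, 10 mM MgCl2, 0.1% BSA, then reacted 60 min at room temperature with cAMP (diluted to 400 nM). 5′-AMP was read as 520/490 nm TR-FRET (ex 340 nm) after ≥3 h binding; IC50 was referenced to solvent (0%) and no-enzyme (100%) wells.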

Chain of human PDE10 (Q9Y233 whole entry): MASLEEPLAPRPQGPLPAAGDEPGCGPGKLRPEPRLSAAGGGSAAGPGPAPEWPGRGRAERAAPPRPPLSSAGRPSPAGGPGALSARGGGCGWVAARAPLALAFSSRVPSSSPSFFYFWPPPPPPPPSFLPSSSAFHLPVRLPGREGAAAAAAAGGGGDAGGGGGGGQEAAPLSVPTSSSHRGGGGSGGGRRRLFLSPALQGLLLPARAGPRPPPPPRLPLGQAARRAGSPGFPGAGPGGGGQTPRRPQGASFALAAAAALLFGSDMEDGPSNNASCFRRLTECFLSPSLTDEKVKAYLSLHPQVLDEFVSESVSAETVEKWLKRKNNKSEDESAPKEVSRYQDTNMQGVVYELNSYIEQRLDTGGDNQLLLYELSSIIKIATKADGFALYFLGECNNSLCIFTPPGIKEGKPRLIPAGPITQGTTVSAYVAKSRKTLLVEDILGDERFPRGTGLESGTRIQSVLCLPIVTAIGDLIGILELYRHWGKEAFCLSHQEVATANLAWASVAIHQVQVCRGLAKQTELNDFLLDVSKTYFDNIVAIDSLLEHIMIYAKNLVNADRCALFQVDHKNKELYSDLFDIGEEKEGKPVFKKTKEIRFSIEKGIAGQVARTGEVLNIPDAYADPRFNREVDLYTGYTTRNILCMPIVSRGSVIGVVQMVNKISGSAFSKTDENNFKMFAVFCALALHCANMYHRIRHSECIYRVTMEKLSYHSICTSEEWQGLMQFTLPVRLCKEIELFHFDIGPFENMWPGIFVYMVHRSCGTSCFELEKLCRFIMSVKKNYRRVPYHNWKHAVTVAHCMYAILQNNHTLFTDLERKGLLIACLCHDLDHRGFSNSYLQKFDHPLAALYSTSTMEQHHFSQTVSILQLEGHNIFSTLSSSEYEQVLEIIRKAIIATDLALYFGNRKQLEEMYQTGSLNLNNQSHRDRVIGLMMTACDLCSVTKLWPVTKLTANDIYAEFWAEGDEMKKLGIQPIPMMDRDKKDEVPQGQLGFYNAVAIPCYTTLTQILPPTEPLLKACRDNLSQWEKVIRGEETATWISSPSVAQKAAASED

Compound | IC50 [nM]
Cn1ncc(-c2ccc(C#N)cn2)c1C(=O)Nc1cc2nc(-c3ccccc3)nn2cc1F [Example 3.23, 4-(5-cyanopyridin-2-yl)-N-(6-fluoro-2-phenyl-[1,2,4]triazolo[1,5-a]pyridin-7-yl)-1-methyl-1H-pyrazole-5-carboxamide] | < 5
Cc1nccnc1-c1cnn(C)c1C(=O)Nc1cc2nc(-c3ccccc3)nn2cc1F [Example 3.32, N-(6-fluoro-2-phenyl-[1,2,4]triazolo[1,5-a]pyridin-7-yl)-1-methyl-4-(3-methylpyrazin-2-yl)-1H-pyrazole-5-carboxamide] | < 5
Cn1ncc(-c2nc(C(F)(F)F)cs2)c1C(=O)NC1CCn2cc(-c3ccccc3)nc2C1 (stereo not drawn) [Example 2.3, 1-methyl-N-(2-phenyl-5,6,7,8-tetrahydroimidazo[1,2-a]pyridin-7-yl)-4-(4-(trifluoromethyl)thiazol-2-yl)-1H-pyrazole-5-carboxamide] | < 5
Cc1nc(-c2cnn(C)c2C(=O)NC2CCn3cc(-c4ccccc4)nc3C2)cs1 (stereo not drawn) [Example 2.12, 1-methyl-4-(2-methylthiazol-4-yl)-N-(2-phenyl-5,6,7,8-tetrahydroimidazo[1,2-a]pyridin-7-yl)-1H-pyrazole-5-carboxamide] | < 5
Cn1ncc(-c2nc(C(F)F)cs2)c1C(=O)Nc1ccn2nc(-c3ccccc3)nc2c1 [Example 3.15, 4-(4-(difluoromethyl)thiazol-2-yl)-1-methyl-N-(2-phenyl-[1,2,4]triazolo[1,5-a]pyridin-7-yl)-1H-pyrazole-5-carboxamide] | < 5
Cc1ncc(C)c(-c2cnn(C)c2C(=O)Nc2cc3nc(-c4cccnc4)nn3cc2F)n1 [Example 3.49, 4-(2,5-dimethylpyrimidin-4-yl)-N-(6-fluoro-2-(pyridin-3-yl)-[1,2,4]triazolo[1,5-a]pyridin-7-yl)-1-methyl-1H-pyrazole-5-carboxamide] | < 5
Cn1ncc(-c2nc(C(F)(F)F)cs2)c1C(=O)Nc1ccn2cc(-c3ccccc3)nc2c1 [Example 1.5, 1-methyl-N-(2-phenylimidazo[1,2-a]pyridin-7-yl)-4-(4-(trifluoromethyl)thiazol-2-yl)-1H-pyrazole-5-carboxamide] | < 5
COc1cncc(-c2cnn(C)c2C(=O)Nc2cc3nc(-c4ccccc4)nn3cc2F)n1 [Example 3.42, N-(6-fluoro-2-phenyl-[1,2,4]triazolo[1,5-a]pyridin-7-yl)-4-(6-methoxypyrazin-2-yl)-1-methyl-1H-pyrazole-5-carboxamide] | < 5
CCc1csc(-c2cnn(C)c2C(=O)Nc2ccn3nc(-c4ccccc4)nc3c2)n1 [Example 3.18, 4-(4-ethylthiazol-2-yl)-1-methyl-N-(2-phenyl-[1,2,4]triazolo[1,5-a]pyridin-7-yl)-1H-pyrazole-5-carboxamide] | < 5
Cn1ncc(-c2ccc(F)cn2)c1C(=O)Nc1cc2nc(-c3ccccc3)nn2cc1F [Example 3.8, N-(6-fluoro-2-phenyl-[1,2,4]triazolo[1,5-a]pyridin-7-yl)-4-(5-fluoropyridin-2-yl)-1-methyl-1H-pyrazole-5-carboxamide] | < 5
Cc1cc(C)nc(-c2cnn(C)c2C(=O)Nc2cc3nc(-c4ccc(F)cc4)nn3cc2F)c1 [Example 3.54, 4-(4,6-dimethylpyridin-2-yl)-N-(6-fluoro-2-(4-fluorophenyl)-[1,2,4]triazolo[1,5-a]pyridin-7-yl)-1-methyl-1H-pyrazole-5-carboxamide] | < 5
COc1nccnc1-c1cnn(C)c1C(=O)Nc1cc2nc(-c3ccccc3)nn2cc1F [Example 3.28, N-(6-fluoro-2-phenyl-[1,2,4]triazolo[1,5-a]pyridin-7-yl)-4-(3-methoxypyrazin-2-yl)-1-methyl-1H-pyrazole-5-carboxamide] | < 5
Cc1sc(-c2cnn(C)c2C(=O)Nc2ccn3cc(-c4ccccc4)nc3c2)nc1C(F)F [Example 1.4, 4-(4-(difluoromethyl)-5-methylthiazol-2-yl)-1-methyl-N-(2-phenylimidazo[1,2-a]pyridin-7-yl)-1H-pyrazole-5-carboxamide] | < 5
Cc1ccnc(-c2cnn(C)c2C(=O)Nc2cc3nc(-c4ccccc4)nn3cc2F)n1 [Example 3.43, N-(6-fluoro-2-phenyl-[1,2,4]triazolo[1,5-a]pyridin-7-yl)-1-methyl-4-(4-methylpyrimidin-2-yl)-1H-pyrazole-5-carboxamide] | < 5
Cc1nc(C)c(C)c(-c2cnn(C)c2C(=O)Nc2cc3nc(-c4ccccc4)nn3cc2F)n1 [Example 3.37, N-(6-fluoro-2-phenyl-[1,2,4]triazolo[1,5-a]pyridin-7-yl)-1-methyl-4-(2,5,6-trimethylpyrimidin-4-yl)-1H-pyrazole-5-carboxamide] | < 5

Continued, values first:

IC50 [nM] | Compound
< 5 | Cc1cc(C)nc(-c2cnn(C)c2C(=O)Nc2ccn3nc(N4CCC[C@@H]4C)nc3c2)c1 [Example 4.8, (S)-4-(4,6-dimethylpyridin-2-yl)-1-methyl-N-(2-(2-methylpyrrolidin-1-yl)-[1,2,4]triazolo[1,5-a]pyridin-7-yl)-1H-pyrazole-5-carboxamide]
< 5 | Cn1ncc(-c2nc(C(F)F)cs2)c1C(=O)Nc1ccn2nc(N3CC[C@H](F)C3)nc2c1 [Example 4.15, (S)-4-(4-(difluoromethyl)thiazol-2-yl)-N-(2-(3-fluoropyrrolidin-1-yl)-[1,2,4]triazolo[1,5-a]pyridin-7-yl)-1-methyl-1H-pyrazole-5-carboxamide]
< 5 | Cc1cncc(-c2cnn(C)c2C(=O)Nc2ccn3nc(N4CC[C@H](F)C4)nc3c2)n1 [Example 4.19, (S)-N-(2-(3-fluoropyrrolidin-1-yl)-[1,2,4]triazolo[1,5-a]pyridin-7-yl)-1-methyl-4-(6-methylpyrazin-2-yl)-1H-pyrazole-5-carboxamide]
< 5 | Cc1sc(-c2cnn(C)c2C(=O)NC2CCn3nc(-c4ccc(F)cc4)nc3C2)nc1C(F)F (stereo not drawn) [Example 5.36, 4-(4-(difluoromethyl)-5-methylthiazol-2-yl)-N-(2-(4-fluorophenyl)-5,6,7,8-tetrahydro-[1,2,4]triazolo[1,5-a]pyridin-7-yl)-1-methyl-1H-pyrazole-5-carboxamide]
< 5 | Cn1ncc(-c2nc(C(F)F)cs2)c1C(=O)Nc1ccn2nc(N3CCCC3)nc2c1 [Example 4.25, 4-(4-(difluoromethyl)thiazol-2-yl)-1-methyl-N-(2-(pyrrolidin-1-yl)-[1,2,4]triazolo[1,5-a]pyridin-7-yl)-1H-pyrazole-5-carboxamide]
< 5 | Cc1sc(-c2cnn(C)c2C(=O)Nc2ccn3nc(N4CCC[C@@H]4C)nc3c2)nc1C(F)F [Example 4.9, (S)-4-(4-(difluoromethyl)-5-methylthiazol-2-yl)-1-methyl-N-(2-(2-methylpyrrolidin-1-yl)-[1,2,4]triazolo[1,5-a]pyridin-7-yl)-1H-pyrazole-5-carboxamide]
